According to US9840494B2, “Quinazoline derivative” (Tianjin Hemay Oncology Pharmaceutical Co., Ltd., priority 2013, dated 2017):
Marks after values point to notes of the source that are not given here.

System: FaDu human head and neck cancer xenograft
Experiment: FaDu human head and neck cancer xenograft model
Assay type: in vivo, nude mice
Conditions: for Tumor Weight (x ± S.D.) / Tumor Inhibitor Rate / Relative Tumor Volume (x ± S.D.) / T/C / Tumor Volume (x ± S.D.): FaDu xenograft; for Tumor Inhibitor Rate: by tumor weight; for Relative Tumor Volume (x ± S.D.) / T/C / Tumor Volume (x ± S.D.): end of the assay
Protocol: Tumor cells were cultured in an incubator at 37° C. with 5% CO2 using MEM medium containing 10% inactivated fetal calf serum, 100 U/ml penicillin and 100 μg/ml streptomycin. The tumor cells in logarithmic growth phase were collected, adjusted to an appropriate density and injected subcutaneously into nude mice (0.2 ml per mouse). An xenograft model was established after tumor was formed in the nude mice and passaged in vivo for more than three generations.
The above-mentioned tumor-bearing mice were sacrificed by cervical dislocation. The tumor was taken out and cut into small tumor pieces (about 2 mm×2 mm×2 mm) under sterile conditions. The small tumor pieces were inoculated subcutaneously into nude mice on the right shoulder blade with a trocar. […] The animals in each group were subjected to intragastric administration daily for 14 consecutive days. The day of grouping is assigned as day 0.
Tumor volume is calculated as: volume=0.5×long diameter×short diameter^2. The relative tumor volume (RTV) was calculated based on the measurements as: RTV=Vt/V0, wherein V0 is the tumor volume measured when the animals were grouped to be administrated (i.e., d0), and Vt is the tumor volume when each measurement was taken. Relative tumor proliferation rate T/C was calculated based on relative tumor volume, in which T is the mean value of the relative tumor volume of the treatment group, and C is the mean value of the relative tumor volume of the solvent control group. T/C was calculated as follows: T/C=TRTV/CRTV×100% (TRTV: RTV of the treatment group; CRTV: RTV of the solvent control group) Inhibition rate (%)=(mean tumor weight of the solvent control group−mean tumor weight of the treatment group)/mean tumor weight of the solvent control group×100%. Percentage of body weight change=Wn/W0×100% (Wn: mean body weight of experimental animals in each group at day n, W0: mean body weight of experimental animals in each group at day 0).
One-Way ANOVA test was conducted in SPSS13.0, performing statistical analysis between groups.

[1] = FaDu xenograft nude mice, 20, 40 and 80 mg/kg intragastric daily for 14 days
[2] = 20 mg/kg intragastric daily for 14 days
[3] = 40 mg/kg intragastric daily for 14 days
[4] = 80 mg/kg intragastric daily for 14 days

COCCOc1cc2ncnc(Nc3ccc(F)c(Cl)c3)c2cc1NC(=O)C=C1CCN(CCOC)CC1.CS(=O)(=O)O [Compound 3, N-[4-(3-chloro-4-fluorophenylamino)-7-(2-methoxyethoxy)quinazolin-6-yl]-2-[1-(2-methoxyethyl)piperidin-4-ylidene]acetamide dimethylsulfonate]
Body weights of the experimental animals [1]: not significantly reduced | abnormality in the experimental animals [1]: no significant abnormality was observed | Tumor Weight (x ± S.D.) [2]: 0.684 ± 0.192 g | Tumor Inhibitor Rate [2]: 37.5% | Relative Tumor Volume (x ± S.D.) [2]: 6.1 ± 1.3 | T/C [2]: 61.4% | Tumor Volume (x ± S.D.) [2]: 703.3 ± 144.2** mm^3 | Tumor Weight (x ± S.D.) [3]: 0.522 ± 0.427 g | Tumor Inhibitor Rate [3]: 52.4% | Relative Tumor Volume (x ± S.D.) [3]: 5.5 ± 1.9 | T/C [3]: 54.7% | Tumor Volume (x ± S.D.) [3]: 602.9 ± 204.4*** mm^3 | Tumor Weight (x ± S.D.) [4]: 0.260 ± 0.128 g | Tumor Inhibitor Rate [4]: 76.2% | Relative Tumor Volume (x ± S.D.) [4]: 3.2 ± 1.6 | T/C [4]: 31.6% | Tumor Volume (x ± S.D.) [4]: 352.3 ± 157.0*** mm^3
